Experimental findings from US8785460B2, “Tricyclic compounds and use thereof” (Takeda Pharmaceutical Company Limited, priority 2008, dated 2014) are described below.

Where only a bound is given, the exact number is not on record here.

The test addresses T1, human CRF1 receptor (Homo sapiens, UniProt P34998).
T1 construct: expressed in transfected cells; host or cells: CHO cells (membrane fraction)
T1 sequence (P34998 24-415): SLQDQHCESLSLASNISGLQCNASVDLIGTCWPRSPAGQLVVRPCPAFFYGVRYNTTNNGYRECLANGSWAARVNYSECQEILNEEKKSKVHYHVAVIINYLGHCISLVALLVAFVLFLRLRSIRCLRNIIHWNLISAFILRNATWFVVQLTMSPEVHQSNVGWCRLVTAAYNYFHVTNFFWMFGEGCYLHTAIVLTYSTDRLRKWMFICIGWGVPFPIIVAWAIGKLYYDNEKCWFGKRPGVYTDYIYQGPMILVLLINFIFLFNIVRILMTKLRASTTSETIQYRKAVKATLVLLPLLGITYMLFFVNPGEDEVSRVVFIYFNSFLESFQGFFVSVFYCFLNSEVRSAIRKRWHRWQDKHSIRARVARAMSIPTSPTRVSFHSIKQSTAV
Description: Measurement of CRF Binding Inhibitory Rate (receptor binding experiment with 125I-CRF). Particulars: human CRF1 receptor expressing CHO cellular membrane fraction, 50 pM 125I-CRF, room temperature 1.5 hr, 0.05 nM to 10 μM of compound; read-out: IC50 values (CRF binding inhibition). The method, then: Measurement of CRF Binding Inhibitory Rate
A receptor binding experiment was carried out using a human CRF1 receptor expressing CHO cellular membrane fraction and ovine CRF, [^125I]-tyr^0(^125I-CRF). 1000 nM of a test compound was incubated with 1 μg of human CREF receptor expressing CHO cellular membrane fraction and 50 pM of ^125I-CRF in a binding assay buffer (50 mM Tris-HCl, 5 mM EDTA, 10 mM MgCl2, 0.05% CHAPS, 0.1% BSA, 0.5 mM PMSF, 0.1 μg/mL pepstatin, 20 μg/mL leupeptin, pH 7.5). In addition, for measuring nonspecific binding (NSB), 0.1 μM unlabelled human Urocortin was incubated with 5 μg of human CRE receptor expressing CHO cellular membrane fraction and 50 pM of ^125I-CRF in a binding assay buffer. After a binding reaction was carried out at room temperature for 1.5 hr, the membrane was entrapped on a glass filter (UniFilter plate GF-C/Perkin Elmer) by suction filtration using a cell harvester (Perkin Elmer), and washed with ice-cooled 50 mM Tris-HCl (pH 7.5). After drying the glass filter, a liquid scintillation cocktail (Microscinti 0, Perkin Elmer) was added, and the radioactivity of ^125I-CRF remaining on a glass filter was measured using Topcount (Perkin Elmer).
(TB−SB)/(TB−NSB)×100 (SB: radioactivity when a compound is added, TB: maximum binding radioactivity, NSB: nonspecific binding radioactivity) were calculated to obtain binding inhibitory rates under the range of the presence from 0.05 nM to 10 μM of each compound. The IC50 values were calculated by using GraphPad Prism software.
As for `CCOc1ccc(N2CCCn3c2nc2c(Cl)ccc(C(OC(F)F)C(F)(F)F)c23)c(C)n1` (stereo not drawn) [Example 287, 9-Chloro-6-[1-(difluoromethoxy)-2,2,2-trifluoroethyl]-1-(6-ethoxy-2-methylpyridin-3-yl)-1,2,3,4-tetrahydropyrimido[1,2-a]benzimidazole], the IC50 is below 1000 nM.

On to `COc1ccc(N2CCCn3c2nc2c(Cl)ccc(C(O)(C4CC4)C4CC4)c23)c(Cl)c1` [Example 465, [9-Chloro-1-(2-chloro-4-methoxyphenyl)-1,2,3,4-tetrahydropyrimido[1,2-a]benzimidazol-6-yl](dicyclopropyl)methanol], for which the IC50 is below 1000 nM.

Consider `OC(c1ccc(Cl)c2nc3n(c12)CCCN3c1ccc(Cl)cc1Cl)C(F)(F)F` (stereo not drawn) [Example 307, 1-[9-Chloro-1-(2,4-dichlorophenyl)-1,2,3,4-tetrahydropyrimido[1,2-a]benzimidazol-6-yl]-2,2,2-trifluoroethanol], for which the IC50 is below 1000 nM.

On to `CCC(OCC(F)(F)F)c1ccc(Cl)c2nc3n(c12)CCCN3c1ccc(OC)cc1Cl` (stereo not drawn) [Example 466, 9-Chloro-1-(2-chloro-4-methoxyphenyl)-6-[1-(2,2,2-trifluoroethoxy)propyl]-1,2,3,4-tetrahydropyrimido[1,2-a]benzimidazole], for which the IC50 is below 1000 nM.

Consider `FC(F)(F)C(Cl)c1ccc(Cl)c2nc3n(c12)CCCN3c1c(Cl)cc(Cl)cc1Cl` (stereo not drawn) [Example 412, 9-Chloro-6-(1-chloro-2,2,2-trifluoroethyl)-1-(2,4,6-trichlorophenyl)-1,2,3,4-tetrahydropyrimido[1,2-a]benzimidazole], for which the IC50 is below 1000 nM.

Take `CCC(c1ccc(Cl)c2nc3n(c12)CCCN3c1ccc(OC)nc1C)C(F)F` (stereo not drawn) [Example 303, 9-Chloro-6-[1-(difluoromethyl)propyl]-1-(6-methoxy-2-methylpyridin-3-yl)-1,2,3,4-tetrahydropyrimido[1,2-a]benzimidazole]: the IC50 is below 1000 nM.

In the case of `CCC(C(C)=O)c1ccc(Cl)c2nc3n(c12)CCCN3c1ccc(Cl)cc1Cl` (stereo not drawn) [Example 405, 3-[9-Chloro-1-(2,4-dichlorophenyl)-1,2,3,4-tetrahydropyrimido[1,2-a]benzimidazol-6-yl]pentan-2-one], the IC50 was below 1000 nM.

As to `CCC(CC)c1ccc(Cl)c2nc3n(c12)CC(=O)N3c1c(C)cc(Cl)cc1OC` [Example 2, 8-Chloro-1-(4-chloro-2-methoxy-6-methylphenyl)-5-(1-ethylpropyl)-1H-imidazo[1,2-a]benzimidazol-2(3H)-one], the IC50 was below 1000 nM.

Regarding `Cc1cc(S(C)(=O)=O)ccc1N1CCCn2c1nc1c(Cl)ccc(C(OC(F)F)C(F)(F)F)c12` (stereo not drawn) [Example 477, 9-Chloro-6-[1-(difluoromethoxy)-2,2,2-trifluoroethyl]-1-[2-methyl-4-(methylsulfonyl)phenyl]-1,2,3,4-tetrahydropyrimido[1,2-a]benzimidazole], the IC50 was below 1000 nM.

For the molecule `CCC(CC)c1ccc(Cl)c2nc3n(c12)CCCCN3c1ccc(C)cc1CO` [Example 33, {2-[10-Chloro-7-(1-ethylpropyl)-2,3,4,5-tetrahydro-1H-[1,3]diazepino[1,2-a]benzimidazol-1-yl]-5-methylphenyl}methanol], the IC50 is below 1000 nM.

With `CCC(CC)c1ccc(Cl)c2nc3n(c12)CCCCN3c1ccc(C)cc1C=O` [Example 34, 2-[10-Chloro-7-(1-ethylpropyl)-2,3,4,5-tetrahydro-1H-[1,3]diazepino[1,2-a]benzimidazol-1-yl]-5-methylbenzaldehyde], the IC50 was below 1000 nM.

As to `CCO/N=C(\CC)c1ccc(Cl)c2nc3n(c12)CCCN3c1ccc(Cl)cc1Cl` [Example 123, (1E)-1-[9-Chloro-1-(2,4-dichlorophenyl)-1,2,3,4-tetrahydropyrimido[1,2-a]benzimidazol-6-yl]propan-1-one O-ethyloxime], the IC50 was below 1000 nM.

In the case of `CCC(OCCO)c1ccc(Cl)c2nc3n(c12)CCCN3c1ccc(Cl)cc1Cl` (stereo not drawn) [Example 242, 2-{1-[9-Chloro-1-(2,4-dichlorophenyl)-1,2,3,4-tetrahydropyrimido[1,2-a]benzimidazol-6-yl]propoxy}ethanol], the IC50 was below 1000 nM.

`C=CCCC(O)c1ccc(Cl)c2nc3n(c12)CCCN3c1c(C)cc(Cl)cc1Cl` (stereo not drawn) [Example 381, 1-[9-Chloro-1-(2,4-dichloro-6-methylphenyl)-1,2,3,4-tetrahydropyrimido[1,2-a]benzimidazol-6-yl]pent-4-en-1-ol]: the IC50 is below 1000 nM.

Consider `C=CCC(O)c1ccc(Cl)c2nc3n(c12)CCCN3c1c(C)cc(Cl)cc1Cl` (stereo not drawn) [Example 383, 1-[9-Chloro-1-(2,4-dichloro-6-methylphenyl)-1,2,3,4-tetrahydropyrimido[1,2-a]benzimidazol-6-yl]but-3-en-1-ol], for which the IC50 was below 1000 nM.

As for `COc1ccc(N2CCCCn3c2nc2c(Cl)ccc(CO)c23)c(Cl)c1` [Example 331, [10-Chloro-1-(2-chloro-4-methoxyphenyl)-2,3,4,5-tetrahydro-1H-[1,3]diazepino[1,2-a]benzimidazol-7-yl]methanol], the half-inhibitory concentration (IC50) is below 1000 nM.

`CC/C(=N\OC)c1ccc(Cl)c2nc3n(c12)CCCN3c1ccc(Cl)cc1Cl` [Example 121, (1E)-1-[9-Chloro-1-(2,4-dichlorophenyl)-1,2,3,4-tetrahydropyrimido[1,2-a]benzimidazol-6-yl]propan-1-one O-methyloxime]: the IC50 was below 1000 nM.

Turning to `CCN(CC)c1cccc2nc3n(c12)CCCOC3c1ccc(Cl)cc1Cl` (single isomer, unassigned) [Example 485, 1-(2,4-Dichlorophenyl)-N,N-diethyl-4,5-dihydro-1H,3H-[1,4]oxazepino[4,3-a]benzimidazol-7-amine], the IC50 is below 1000 nM.

Turning to `CCC(=O)c1cccc2nc3n(c12)CCCCN3c1ccc(Cl)cc1Cl` [Example 69, 1-[1-(2,4-Dichlorophenyl)-2,3,4,5-tetrahydro-1H-[1,3]diazepino[1,2-a]benzimidazol-7-yl]propan-1-one], the IC50 is below 1000 nM.

On to `CCC(CC)c1ccc(Cl)c2nc3n(c12)CCCCN3c1ccc(C)cc1` [Example 32, 10-Chloro-7-(1-ethylpropyl)-1-(4-methylphenyl)-2,3,4,5-tetrahydro-1H-[1,3]diazepino[1,2-a]benzimidazole], for which the IC50 was below 1000 nM.

Consider `CCC(OC(C)=O)c1ccc(Cl)c2nc3n(c12)CCCN3c1ccc(C(N)=O)cc1Cl` (stereo not drawn) [Example 255, 1-[1-(4-Carbamoyl-2-chlorophenyl)-9-chloro-1,2,3,4-tetrahydropyrimido[1,2-a]benzimidazol-6-yl]propyl acetate], for which the IC50 was below 1000 nM.

Turning to `CCC(c1ccc(Cl)c2nc3n(c12)CCCN3c1ccc(Cl)cc1Cl)N(C)S(C)(=O)=O` (stereo not drawn) [Example 385, N-{1-[9-Chloro-1-(2,4-dichlorophenyl)-1,2,3,4-tetrahydropyrimido[1,2-a]benzimidazol-6-yl]propyl}-N-methylmethanesulfonamide], the IC50 is below 1000 nM.

For the molecule `CCC(CC)c1ccc(Cl)c2nc3n(c12)CCN3c1ccc(Cl)cc1C=O` [Example 6, 5-Chloro-2-[8-chloro-5-(1-ethylpropyl)-2,3-dihydro-1H-imidazo[1,2-a]benzimidazol-1-yl]benzaldehyde], the IC50 is below 1000 nM.

Take `CCC(OC(C)=O)c1ccc(Cl)c2nc3n(c12)CCCN3c1ccccc1Cl` (stereo not drawn) [Example 253, 1-[9-Chloro-1-(2-chlorophenyl)-1,2,3,4-tetrahydropyrimido[1,2-a]benzimidazol-6-yl]propyl acetate]: the IC50 is below 1000 nM.

With `Clc1ccc(N2CCCn3c2nc2c(Cl)ccc(N4CCCC4)c23)c(Cl)c1` [Example 196, 9-Chloro-1-(2,4-dichlorophenyl)-6-pyrrolidin-1-yl-1,2,3,4-tetrahydropyrimido[1,2-a]benzimidazole], the IC50 is below 1000 nM.

`CCC(CC)c1ccc(Cl)c2nc3n(-c4c(C)cc(Cl)cc4OC)c(Cl)cn3c12` [Example 10, 2,8-Dichloro-1-(4-chloro-2-methoxy-6-methylphenyl)-5-(1-ethylpropyl)-1H-imidazo[1,2-a]benzimidazole]: the IC50 is below 1000 nM.

Turning to `CCC(CC)c1ccc(Cl)c2nc3n(c12)CCN3c1ccc(Cl)cc1CN(C)C` [Example 8, 1-{5-Chloro-2-[8-chloro-5-(1-ethylpropyl)-2,3-dihydro-1H-imidazo[1,2-a]benzimidazol-1-yl]phenyl}-N,N-dimethylmethanamine], the half-inhibitory concentration (IC50) was below 1000 nM.
